Values quoted from earlier work in patent US20230228654A1, “Blood Sampling Device and Method for PEth Measurement” (CAPITAINER AB, priority 2020, published 2023).

Test system: PLD
Conditions: Schröck et al, Alcohol 2018; cited from earlier work

SMILES	potency as PLD inhibitor
O=C(NCCN1CCC(n2c(=O)[nH]c3ccccc32)CC1)c1cc2cc(F)ccc2[nH]1 [FIPI, 5-fluoro-2-indolyl-deschlorohalopemide]	low potency
O=C(NCCN1CCC(n2c(=O)[nH]c3cc(Cl)ccc32)CC1)c1ccc(F)cc1 [halopemide]	low potency
